Measurements as given in US20210147455A1 (SHAANXI SYNTHETIC PHARMACEUTICAL CO., LTD., priority 2018, published 2021).
Read-outs that look alike come from different tables or passages of the source.

Columns and labels:
Solubility study = details: Solubility
[1] = Hygroscopicity study (Chinese Pharmacopoeia 2015, 9103); type: physicochemical
Protocol: Test method: • 1. A dried glass weighing bottle with stopper (having an outer diameter of 50 mm and a height of 15 mm) was placed in a thermostatic drier (a saturated ammonium chloride solution was placed on the lower part of the thermostatic drier) at an appropriate temperature of 25° C.±1° C. on the day earlier before the test, and the weight (m1) of weighing bottle was precisely weighed. • 2. An appropriate amount of test sample was taken and spread in the weighing bottle, and the thickness of the test sample was controlled to about 1 mm, and the weight (m2) was precisely weighed. • 3. The weighing bottle was opened and was placed, together with the bottle cap, under the above mentioned constant temperature and humidity condition for 24 hours. • 4. The weighing bottle was capped and precisely weighed to obtain the weight (m3).
Description of hygroscopicity characterization and delimitation of hygroscopicity weight gain: Deliquescence: enough moisture is absorbed to form a liquid. […] Slightly hygroscopic: hygroscopic weight gain is less than 2% but not less than 0.2%. Not or hardly hygroscopic: hygroscopic weight gain is less than 0.2%.

[2] = Stability experiments under 40° C.±2° C. and 75% R.H±5% R.H (accelerated test); type: physicochemical; details: 40° C./75% R.H
[3] = Stability experiments under 25° C.±2° C. and 65% R.H±5% R.H; details: 25° C./65% R.H
From the text: • 1. […] The results are shown in detail in the following table.

in vivo = details: female, mouse, 1 mg/kg
Protocol: (§1) The mice were purchased from Beijing Weili Tonghua Experimental Animal Technology Co., Ltd. Based on the weight, the mice were randomly divided into 5 groups, with each group including 3 animals.
(§2) Before the pharmacokinetic test, the mice were fasted for 16 hours. […] 200 μl of blood was collected at preset timepoint by jugular vein puncture after administration. For the animal group subjected to intravenous administration, blood was collected at minute 0, minute 15, minute 30, hour 1, hour 2, hour 4, hour 8 and hour 24 after administration. Urine was collected at hour 2, hour 4, hour 8, hour 12 and hour 24. The blood was collected in a sample tube containing EDTA and blood sample was immediately centrifuged at 4000 rpm at 4° C. for 5 minutes. The plasma was transferred to another sample tube and stored at minus 20° C.
(§3) The following method and apparatus were used:
(§4) Mobile phase: 100% of acetonitrile (3 mM ammonium acetate) and 100% of water (3 mM ammonium acetate) Quantitation method: internal standard method

[4] = Urine sample
Protocol: as §1, §2, §3, §4

[5] = background statement; cited from earlier work
[6] = day 5, High temperature of 40° C.
[7] = day 10, High temperature of 40° C.

## CC[C@@H]([C@H](C)OP(=O)(O)O)n1ncn(-c2ccc(N3CCN(c4ccc(OC[C@@H]5CO[C@@](Cn6cncn6)(c6ccc(F)cc6F)C5)cc4)CC3)cc2)c1=O [Example 1, Posaconazole Phosphate Monocholinate]
Solubility study; organic solvent or mixture, Methanol, in methanol
  solubility: 35 mg/mL
Solubility study; water, in water
  solubility: 82 mg/mL
[1]; 25° C.±1° C., saturated ammonium chloride solution, 24 hours
  Hygroscopic weight gain: 0.12%
[1]; after 24 hours
  Conclusion (hygroscopicity): No hygroscopicity
[2]; month 0
  Content: 99.87%
  Description: White
  Related substance: 0.13%
[2]; month 1
  Content: 99.87%
  Description: White
  Related substance: 0.13%
[2]; month 2
  Content: 99.86%
  Description: White
  Related substance: 0.14%
[2]; month 3
  Content: 99.85%
  Description: White
  Related substance: 0.15%
[2]; month 6
  Content: 99.84%
  Description: White
  Related substance: 0.16%
[3]; up to month 24
  stability (conclusion in words): higher than that of the compounds in Comparative examples 1˜11
[3]; month 0
  Content: 99.87%
  Description: White
  Related substance: 0.13%
[3]; month 3
  Content: 99.87%
  Description: White
  Related substance: 0.13%
[3]; month 6
  Content: 99.87%
  Description: White
  Related substance: 0.13%
[3]; month 9
  Content: 99.85%
  Description: White
  Related substance: 0.15%
[3]; month 12
  Content: 99.84%
  Description: White
  Related substance: 0.16%
[3]; month 24
  Content: 99.80%
  Description: White
  Related substance: 0.20%
In vivo; plasma, iv
  concentration at 0.25 h: 5560 ng/mL
  concentration at 0.5 h: 7040 ng/mL
  concentration at 1 h: 7630 ng/mL
  concentration at 2 h: 8270 ng/mL
  concentration at 4 h: 7520 ng/mL
  concentration at 8 h: 7780 ng/mL
  concentration at 24 h: 7920 ng/mL
In vivo; urine, intravenous
  concentration at 24 h: 0 ng/mL
Day 0
  Content: 99.87%
  Description: White
  Related substance: 0.13%
Day 5, High humidity of 92.5%
  Content: 99.86%
  Description: White
  Related substance: 0.14%
[6]
  Content: 99.87%
  Description: White
  Related substance: 0.13%
Day 5, Illumination of 4500LX
  Content: 99.87%
  Description: White
  Related substance: 0.13%
Day 10, High humidity of 92.5%
  Content: 99.86%
  Description: White
  Related substance: 0.14%
[7]
  Content: 99.85%
  Description: White
  Related substance: 0.15%
Day 10, Illumination of 4500LX
  Content: 99.86%
  Description: White
  Related substance: 0.14%
[4]; 0~2 h, 1 mg/kg intravenous
  Concentration of the compound in Example 1: 149.1 ng/mL
[4]; 2~4 h
  Concentration of the compound in Example 1: 641.6 ng/mL
[4]; 4~8 h
  Concentration of the compound in Example 1: 973.0 ng/mL
[4]; 8~12 h
  Concentration of the compound in Example 1: 716.5 ng/mL
[4]; 12~24 h
  Concentration of the compound in Example 1: 400.9 ng/mL

## sulfobutyl ether-β-cyclodextrin
[5]
  preclinical toxicology finding: causes vacuolization of the urothelial cells and activation of the macrophages in the liver and lung
